From the supplement of paper PMC10307832

Assays:
Test in all cases: relative viability (nuclei count vs DMSO), 5 days (fraction); higher = more cells survive
Fedratinib + Navitoclax = compound: Cc1cnc(Nc2ccc(OCCN3CCCC3)cc2)nc1Nc1cccc(S(=O)(=O)NC(C)(C)C)c1 [Fedratinib] + CC1(C)CCC(c2ccc(Cl)cc2)=C(CN2CCN(c3ccc(C(=O)NS(=O)(=O)c4ccc(N[C@H](CCN5CCOCC5)CSc5ccccc5)c(S(=O)(=O)C(F)(F)F)c4)cc3)CC2)C1 [Navitoclax] (partner 0.5 µM)
Outline: (§1)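 For relative viability, nuclei counts in treated wells were divided by those in vehicle wells. Lung cancer cell lines had been pin-tool dosed in 1536-well plates the day after seeding and cultured for 5 days, then fixed and stained in one step (final 0.05% Triton X-100, 1% formaldehyde, 1 ug/ml Hoechst) and imaged at 4×. Doses were one drug alone or a fixed anchor-drug dose plus five library-drug doses (not always all listed) in √10 steps, and values are duplicate-plate medians.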

Fedratinib + Pictilisib = compound: Cc1cnc(Nc2ccc(OCCN3CCCC3)cc2)nc1Nc1cccc(S(=O)(=O)NC(C)(C)C)c1 [Fedratinib] + CS(=O)(=O)N1CCN(Cc2cc3nc(-c4cccc5[nH]ncc45)nc(N4CCOCC4)c3s2)CC1 [Pictilisib] (partner 1 µM)
Outline: as §1

Fedratinib + Linsitinib = compound: Cc1cnc(Nc2ccc(OCCN3CCCC3)cc2)nc1Nc1cccc(S(=O)(=O)NC(C)(C)C)c1 [Fedratinib] + C[C@]1(O)C[C@@H](c2nc(-c3ccc4ccc(-c5ccccc5)nc4c3)c3c(N)nccn32)C1 [Linsitinib] (partner 1 µM)
Outline: as §1

GW-2580 + Vorinostat = compound: COC1=CC=C(C=C1)COC2=C(C=C(C=C2)CC3=CN=C(N=C3N)N)OC [GW-2580] + O=C(CCCCCCC(=O)Nc1ccccc1)NO [Vorinostat] (partner 1 µM)
Outline: as §1

GW-2580 + OSI-027 = compound: COC1=CC=C(C=C1)COC2=C(C=C(C=C2)CC3=CN=C(N=C3N)N)OC [GW-2580] + COc1cccc2cc(-c3nc([C@H]4CC[C@H](C(=O)O)CC4)n4ncnc(N)c34)[nH]c12 [OSI-027] (partner 0.5 µM)
Outline: as §1

EBC-1
relative viability (Fedratinib + Navitoclax; first compound 0.1 µM): 0.28 | relative viability (Fedratinib + Navitoclax; first compound 0.3162 µM): 0.282 | relative viability (Fedratinib + Navitoclax; first compound 1 µM): 0.155 | relative viability (Fedratinib + Pictilisib; first compound 0.1 µM): 0.27 | relative viability (Fedratinib + Pictilisib; first compound 0.3162 µM): 0.33 | relative viability (Fedratinib + Pictilisib; first compound 1 µM): 0.251 | relative viability (Fedratinib + Linsitinib; first compound 0.1 µM): 0.764 | relative viability (Fedratinib + Linsitinib; first compound 0.3162 µM): 0.937 | relative viability (Fedratinib + Linsitinib; first compound 1 µM): 0.814

EKVX
relative viability (GW-2580 + Vorinostat; first compound 0.08 µM): 0.711 | relative viability (GW-2580 + Vorinostat; first compound 0.8 µM): 0.951 | relative viability (GW-2580 + Vorinostat; first compound 2.53 µM): 0.808 | relative viability (GW-2580 + Vorinostat; first compound 8 µM): 0.679 | relative viability (Fedratinib + Navitoclax; first compound 0.1 µM): 1.08 | relative viability (Fedratinib + Navitoclax; first compound 0.3162 µM): 0.918 | relative viability (Fedratinib + Navitoclax; first compound 1 µM): 0.944 | relative viability (Fedratinib + Pictilisib; first compound 0.1 µM): 0.497 | relative viability (Fedratinib + Pictilisib; first compound 0.3162 µM): 0.426 | relative viability (Fedratinib + Pictilisib; first compound 1 µM): 0.504 | relative viability (Fedratinib + Linsitinib; first compound 0.1 µM): 1.09 | relative viability (Fedratinib + Linsitinib; first compound 0.3162 µM): 0.967 | relative viability (Fedratinib + Linsitinib; first compound 1 µM): 0.982 | relative viability (GW-2580 + OSI-027; first compound 0.08 µM): 0.692 | relative viability (GW-2580 + OSI-027; first compound 0.8 µM): 0.755 | relative viability (GW-2580 + OSI-027; first compound 2.53 µM): 0.73 | relative viability (GW-2580 + OSI-027; first compound 8 µM): 0.67

EMC-BAC-2
relative viability (GW-2580 + Vorinostat; first compound 0.08 µM): 0.418 | relative viability (GW-2580 + Vorinostat; first compound 0.8 µM): 0.733 | relative viability (GW-2580 + Vorinostat; first compound 8 µM): 0.376 | relative viability (Fedratinib + Navitoclax; first compound 0.1 µM): 1.19 | relative viability (Fedratinib + Navitoclax; first compound 0.3162 µM): 1.15 | relative viability (Fedratinib + Navitoclax; first compound 1 µM): 1.11 | relative viability (Fedratinib + Pictilisib; first compound 0.1 µM): 0.499 | relative viability (Fedratinib + Pictilisib; first compound 0.3162 µM): 0.575 | relative viability (Fedratinib + Pictilisib; first compound 1 µM): 0.538 | relative viability (Fedratinib + Linsitinib; first compound 0.1 µM): 0.802 | relative viability (Fedratinib + Linsitinib; first compound 0.3162 µM): 0.832 | relative viability (Fedratinib + Linsitinib; first compound 1 µM): 0.796 | relative viability (GW-2580 + OSI-027; first compound 0.08 µM): 0.364 | relative viability (GW-2580 + OSI-027; first compound 0.8 µM): 0.384 | relative viability (GW-2580 + OSI-027; first compound 2.53 µM): 0.364 | relative viability (GW-2580 + OSI-027; first compound 8 µM): 0.337

EPLC-272H
relative viability (GW-2580 + Vorinostat; first compound 0.08 µM): 0.381 | relative viability (GW-2580 + Vorinostat; first compound 0.8 µM): 0.409 | relative viability (GW-2580 + Vorinostat; first compound 2.53 µM): 0.301 | relative viability (GW-2580 + Vorinostat; first compound 8 µM): 0.334 | relative viability (Fedratinib + Navitoclax; first compound 0.1 µM): 1.14 | relative viability (Fedratinib + Navitoclax; first compound 0.3162 µM): 0.936 | relative viability (Fedratinib + Navitoclax; first compound 1 µM): 1.09 | relative viability (Fedratinib + Pictilisib; first compound 0.1 µM): 0.257 | relative viability (Fedratinib + Pictilisib; first compound 0.3162 µM): 0.35 | relative viability (Fedratinib + Pictilisib; first compound 1 µM): 0.0901 | relative viability (Fedratinib + Linsitinib; first compound 0.1 µM): 1.45 | relative viability (Fedratinib + Linsitinib; first compound 0.3162 µM): 0.983 | relative viability (Fedratinib + Linsitinib; first compound 1 µM): 0.993 | relative viability (GW-2580 + OSI-027; first compound 0.08 µM): 0.284 | relative viability (GW-2580 + OSI-027; first compound 0.8 µM): 0.308 | relative viability (GW-2580 + OSI-027; first compound 8 µM): 0.273

H3255
relative viability (GW-2580 + Vorinostat; first compound 0.08 µM): 0.802 | relative viability (GW-2580 + Vorinostat; first compound 0.8 µM): 0.875 | relative viability (GW-2580 + Vorinostat; first compound 2.53 µM): 0.75 | relative viability (GW-2580 + Vorinostat; first compound 8 µM): 0.771 | relative viability (Fedratinib + Navitoclax; first compound 0.1 µM): 0.533 | relative viability (Fedratinib + Navitoclax; first compound 0.3162 µM): 0.385 | relative viability (Fedratinib + Navitoclax; first compound 1 µM): 0.384 | relative viability (Fedratinib + Pictilisib; first compound 0.1 µM): 0.42 | relative viability (Fedratinib + Pictilisib; first compound 0.3162 µM): 0.48 | relative viability (Fedratinib + Pictilisib; first compound 1 µM): 0.432 | relative viability (Fedratinib + Linsitinib; first compound 0.1 µM): 1.04 | relative viability (Fedratinib + Linsitinib; first compound 0.3162 µM): 1.03 | relative viability (Fedratinib + Linsitinib; first compound 1 µM): 0.926 | relative viability (GW-2580 + OSI-027; first compound 0.08 µM): 0.577 | relative viability (GW-2580 + OSI-027; first compound 0.8 µM): 0.606 | relative viability (GW-2580 + OSI-027; first compound 2.53 µM): 0.622 | relative viability (GW-2580 + OSI-027; first compound 8 µM): 0.595

HARA
relative viability (GW-2580 + Vorinostat; first compound 0.08 µM): 0.561 | relative viability (GW-2580 + Vorinostat; first compound 0.8 µM): 0.601 | relative viability (GW-2580 + Vorinostat; first compound 2.53 µM): 0.548 | relative viability (GW-2580 + Vorinostat; first compound 8 µM): 0.588 | relative viability (Fedratinib + Navitoclax; first compound 0.1 µM): 1.17 | relative viability (Fedratinib + Navitoclax; first compound 0.3162 µM): 1.12 | relative viability (Fedratinib + Navitoclax; first compound 1 µM): 1.15 | relative viability (Fedratinib + Pictilisib; first compound 0.1 µM): 0.348 | relative viability (Fedratinib + Pictilisib; first compound 0.3162 µM): 0.422 | relative viability (Fedratinib + Pictilisib; first compound 1 µM): 0.306 | relative viability (Fedratinib + Linsitinib; first compound 0.1 µM): 1.09 | relative viability (Fedratinib + Linsitinib; first compound 0.3162 µM): 0.975 | relative viability (Fedratinib + Linsitinib; first compound 1 µM): 0.979 | relative viability (GW-2580 + OSI-027; first compound 0.08 µM): 0.504 | relative viability (GW-2580 + OSI-027; first compound 0.8 µM): 0.452 | relative viability (GW-2580 + OSI-027; first compound 2.53 µM): 0.491 | relative viability (GW-2580 + OSI-027; first compound 8 µM): 0.395

HCC-15
relative viability (GW-2580 + Vorinostat; first compound 0.08 µM): 0.866 | relative viability (GW-2580 + Vorinostat; first compound 0.8 µM): 1.07 | relative viability (GW-2580 + Vorinostat; first compound 2.53 µM): 0.787 | relative viability (GW-2580 + Vorinostat; first compound 8 µM): 0.75 | relative viability (Fedratinib + Navitoclax; first compound 0.1 µM): 0.654 | relative viability (Fedratinib + Navitoclax; first compound 0.3162 µM): 0.635 | relative viability (Fedratinib + Navitoclax; first compound 1 µM): 0.487 | relative viability (Fedratinib + Pictilisib; first compound 0.1 µM): 0.581 | relative viability (Fedratinib + Pictilisib; first compound 0.3162 µM): 0.713 | relative viability (Fedratinib + Pictilisib; first compound 1 µM): 0.28 | relative viability (Fedratinib + Linsitinib; first compound 0.1 µM): 0.755 | relative viability (Fedratinib + Linsitinib; first compound 0.3162 µM): 0.719 | relative viability (Fedratinib + Linsitinib; first compound 1 µM): 0.734 | relative viability (GW-2580 + OSI-027; first compound 0.08 µM): 0.743 | relative viability (GW-2580 + OSI-027; first compound 0.8 µM): 0.787 | relative viability (GW-2580 + OSI-027; first compound 2.53 µM): 0.596 | relative viability (GW-2580 + OSI-027; first compound 8 µM): 0.656

HCC-44
relative viability (GW-2580 + Vorinostat; first compound 0.08 µM): 1.13 | relative viability (GW-2580 + Vorinostat; first compound 0.8 µM): 1.08 | relative viability (GW-2580 + Vorinostat; first compound 2.53 µM): 1.19 | relative viability (GW-2580 + Vorinostat; first compound 8 µM): 1.1 | relative viability (Fedratinib + Navitoclax; first compound 0.1 µM): 0.914 | relative viability (Fedratinib + Navitoclax; first compound 0.3162 µM): 0.874 | relative viability (Fedratinib + Navitoclax; first compound 1 µM): 1.04 | relative viability (Fedratinib + Pictilisib; first compound 0.1 µM): 0.407 | relative viability (Fedratinib + Pictilisib; first compound 0.3162 µM): 0.623 | relative viability (Fedratinib + Pictilisib; first compound 1 µM): 0.465 | relative viability (Fedratinib + Linsitinib; first compound 0.1 µM): 0.621 | relative viability (Fedratinib + Linsitinib; first compound 0.3162 µM): 0.652 | relative viability (Fedratinib + Linsitinib; first compound 1 µM): 0.667 | relative viability (GW-2580 + OSI-027; first compound 0.08 µM): 0.51 | relative viability (GW-2580 + OSI-027; first compound 0.8 µM): 0.523 | relative viability (GW-2580 + OSI-027; first compound 2.53 µM): 0.5 | relative viability (GW-2580 + OSI-027; first compound 8 µM): 0.524

HCC-78
relative viability (GW-2580 + Vorinostat; first compound 0.08 µM): 0.461 | relative viability (GW-2580 + Vorinostat; first compound 0.8 µM): 0.441 | relative viability (GW-2580 + Vorinostat; first compound 2.53 µM): 0.389 | relative viability (GW-2580 + Vorinostat; first compound 8 µM): 0.39 | relative viability (Fedratinib + Navitoclax; first compound 0.1 µM): 0.676 | relative viability (Fedratinib + Navitoclax; first compound 1 µM): 0.834 | relative viability (Fedratinib + Pictilisib; first compound 0.1 µM): 0.227 | relative viability (Fedratinib + Pictilisib; first compound 1 µM): 0.226 | relative viability (Fedratinib + Linsitinib; first compound 0.1 µM): 0.427 | relative viability (Fedratinib + Linsitinib; first compound 1 µM): 0.49 | relative viability (GW-2580 + OSI-027; first compound 0.08 µM): 0.362 | relative viability (GW-2580 + OSI-027; first compound 0.8 µM): 0.434 | relative viability (GW-2580 + OSI-027; first compound 2.53 µM): 0.337 | relative viability (GW-2580 + OSI-027; first compound 8 µM): 0.337

HCC-366
relative viability (GW-2580 + Vorinostat; first compound 0.08 µM): 0.344 | relative viability (GW-2580 + Vorinostat; first compound 0.8 µM): 0.395 | relative viability (GW-2580 + Vorinostat; first compound 2.53 µM): 0.342 | relative viability (GW-2580 + Vorinostat; first compound 8 µM): 0.357 | relative viability (Fedratinib + Navitoclax; first compound 0.1 µM): 1.22 | relative viability (Fedratinib + Navitoclax; first compound 0.3162 µM): 1.04 | relative viability (Fedratinib + Navitoclax; first compound 1 µM): 1.07 | relative viability (Fedratinib + Pictilisib; first compound 0.1 µM): 0.136 | relative viability (Fedratinib + Pictilisib; first compound 0.3162 µM): 0.0976 | relative viability (Fedratinib + Pictilisib; first compound 1 µM): 0.19 | relative viability (Fedratinib + Linsitinib; first compound 0.1 µM): 0.55 | relative viability (Fedratinib + Linsitinib; first compound 0.3162 µM): 0.663 | relative viability (Fedratinib + Linsitinib; first compound 1 µM): 0.663 | relative viability (GW-2580 + OSI-027; first compound 0.08 µM): 0.944 | relative viability (GW-2580 + OSI-027; first compound 0.8 µM): 1.13 | relative viability (GW-2580 + OSI-027; first compound 2.53 µM): 0.894 | relative viability (GW-2580 + OSI-027; first compound 8 µM): 0.818
